Measurements taken from patent publication US20130129695A1, “METHODS FOR TREATING OR INHIBITING INFECTION BY CLOSTRIDIUM DIFFICILE” (priority 2010, published 2013).

Legend:
[1] = system: C. difficile strain MMX3581 (clinical); assay: Minimum Inhibitory Concentration (MIC) assay; format: cell-based, Clostridium difficile; conditions: Clostridioides difficile, growth 18-24 hours at 37° C.
Method: (§1) The MIC assays are carried out in a final volume of 100 μL in 96-well clear round-bottom plates according to methods established by the Clinical Laboratory Standards Institute (CLSI). Briefly, test compound suspended in 100% DMSO (or another suitable solubilizing buffer) is added to an aliquot of media appropriate for a given pathogen to a total volume of 50 μL. This solution is serially diluted by 2-fold into successive tubes of the same media to give a range of test compound concentrations appropriate to the assay. To each dilution of test compound in media is added 50 ? L of a bacterial suspension from an overnight culture growth in media appropriate to a given pathogen. Final bacterial inoculum is approximately 10^5-10^6 CFU/well. […] Ciprofloxacin is used as an antibiotic-positive control in each screening assay. Each of the bacterial cultures that are available from the American Type Culture Collection (ATCC, www.atcc.org) is identified by its ATCC number.

[2] = system: C. difficile strain ATCC 700057 (MMX 4381); assay: Minimum Inhibitory Concentration (MIC) assay; format: cell-based, Clostridium difficile; conditions: Clostridioides difficile, ATCC700057; C. difficile ATCC 700057 (MMX 4381); growth 18-24 hours at 37° C.
Method: as §1

CD3299 riboswitch = assay: In-line probing assay, binding of ligands to CD3299 riboswitch; design: species or system Clostridium difficile
Method: An in-line probing assay, as described in Regulski and Breaker, “In-line probing analysis of riboswitches”, (2008), Methods in Molecular Biology, Vol 419, pp 53-67, the contents of which are incorporated by reference, is used to estimate the dissociation binding constants for the interaction of each of the ligands described herein with a CD3299 riboswitch amplified from Clostridium difficile. Precursor mRNA leader molecules are prepared by in vitro transcription from templates generated by PCR and [5′-^32P]-labeling using methods described previously (Regulski and Breaker, In-line probing analysis of riboswitches (2008), Methods in Molecular Biology Vol 419, pp 53-67). Approximately 5 nM of labeled RNA precursor is incubated for 41 hours at 25° C. in 20 mM MgCl2, 50 mM Tris/HCl (pH 8.3 at 25° C.) in the presence or absence of a fixed concentration of each ligand. Binding to the CD3299 riboswitches are measured 100 ? M. In-line cleavage products are separated on 10% polyacrylamide gel electrophoresis (PAGE), and the resulting gel is visualized using a Molecular Dynamics Phosphorimager. […]
In-line probing exploits the natural ability of RNA to self-cleave at elevated pH and metal ion concentrations (pH≈8.3, 25 mM MgCl2) in a conformation-dependent manner. […] These ligand-dependent changes in RNA cleavage can be readily detected by denaturing gel electrophoresis. […]

MIC [1]	MIC [2]	Compound	binding to the CD3299 riboswitch (in words) (CD3299 riboswitch)
≤ 64 µg/mL	≤ 64 µg/mL	Cc1cc2nc3c(=O)[nH]c(=O)nc-3n(CCNCc3ccc(Cl)cc3)c2cc1C [Compound 1]	
		Cc1cc2nc3c(=O)[nH]c(=O)nc-3n(C[C@H](O)[C@H](O)[C@H](O)COP(=O)(O)O)c2cc1C [FMN, Flavin mononucleotide]	does not bind
≤ 64 µg/mL	≤ 64 µg/mL	Cc1cc2nc3c(=O)[nH]c(=O)nc-3n(CCNCc3ccccc3)c2cc1C [Compound 2]	
